Laboratory results reported in article PMC11357992, “Non-invasive mapping of systemic neutrophil dynamics upon cardiovascular injury” (Nature Cardiovascular Research, 2023).
“And” between values parts separate entries of the source, which are not always exact repeats. Identical values can stand only once. Where no end group is shown, it is not given here. Side-chain parts run from the residue outwards. rhodamine‑labelled PEGylated perfluoro‑15‑crown‑5 ether nanoemulsion = not defined here; carboxyfluorescein = N-terminal fluorescence label (CF)

Key:
human neutrophils = test: 1H/19F MRI of human neutrophils incubated with hNPPFCs/ConPFCs (healthy and STEMI); assay type: cell-based; conditions: versus ConPFC controls
Protocol: After the incubation period, cells were subjected to density gradient centrifugation to separate PFC-loaded cells from free PFCs. Afterward, samples were analyzed by MRI to determine the ^19F signal within the cell layer as described previously.
To determine PFC uptake by human neutrophils by ^19F MRI, cells were isolated from 10 ml of whole blood by density centrifugation. Subsequently, neutrophils (5 × 10^6) were resuspended in 3 ml DMEM and incubated for up to 8 h at 37 °C under constant motion with 10 µl ^hNPPFCs. Afterward, cells were centrifuged at 350g, washed three times with PBS, resuspended in 1 ml MACS buffer, purified by Percoll gradient centrifugation and analyzed by ^1H/^19F MRI.

[1] = test system: neutrophils, monocytes and lymphocytes from STEMI blood samples; test: Uptake of hNPPFCs/ConPFCs by immune cells from patients with STEMI, flow cytometry; assay type: cell-based, human
Protocol: In total, blood samples from 17 patients with STEMI were used (5 female, 12 male; aged 66.9 ± 13.6 years; troponin T, 3,398 ± 3,520 ng l^−1; creatine kinase, 933.4 ± 685.8 U l^−1; lactate dehydrogenase, 547.8 ± 259.9 U l^−1). Samples were analyzed 24 h after MI. Samples from the oral cavity of patients with pericoronitis (n = 6; 4 female, 2 male; 34.1 ± 21.7 years) and explanted human hearts (n = 3; 1 female, 2 male; 41.6 ± 18.2 years) were processed directly after surgery.
Blood was collected from the vena brachialis, and erythrocytes were lysed as described above. After 10 min of incubation, samples were centrifuged at 350g for 10 min at 20 °C. For isolation of a purified neutrophil fraction, density gradient centrifugation was performed. Five milliliters of Ficoll 1.077 (Sigma-Aldrich) was layered on 5 ml Ficoll 1.119 (Sigma-Aldrich), and 20 ml of whole blood diluted 1:2 with PBS was carefully layered on the Ficoll 1.077. Samples were centrifuged at 350g for 20 min with low acceleration and brake. The neutrophil layer was isolated by careful aspiration and washed with PBS. Isolated cells were resuspended in MACS buffer.
(§1) A total of 1 × 10^6 cells were incubated with 10 µl of the emulsion over a period of 80 min at 37 °C. At distinct time points, 50 µl of the samples were transferred into 2 ml of ice-cold MACS buffer and analyzed for rhodamine fluorescence by flow cytometry.

murine neutrophils = test: Ex vivo mNPPFC uptake by neutrophils from mice with Matrigel-LPS plug, flow cytometry; assay type: cell-based, mouse; design: ex vivo uptake by murine neutrophils, Ctrl - mNPPFCs, raw data: unit not given here; conditions: for ex vivo uptake by murine neutrophils, Ctrl - mNPPFCs, raw data: Ctrl mice, single samples #1-#5
Protocol: To induce defined inflammatory foci, we adopted a recently developed model of localized subcutaneous inflammation. To this end, ice-cold Matrigel (Corning) was doped with LPS (1 µg µl^−1; Salmonella typhimurium, Sigma-Aldrich) and subcutaneously (s.c.) implanted into the neck of the mice. Twenty-four hours after implanting the plug, neutrophils were isolated from the blood and incubated ex vivo with ^mNPPFCs or ^ConPFCs. In separate experiments, 24 h after implantation, ^mNPPFCs or ^ConPFCs were injected intravenously, and immune cells were isolated from the blood. In further experiments, 1 d after plug injection, mice received 1 mmol per kg BW ^mNPPFCs, and, 24 h later, the bone marrow was analyzed by ^1H/^19F MRI. Thereafter, mice were killed, and neutrophils were isolated from the bone marrow for determination of cell numbers. In each case, immune cells were analyzed by flow cytometry.
as §1

Substance: hNPPFCs: PEGylated rhodamine-labeled perfluorocarbon nanoemulsion coupled with human neutrophil-specific peptide hNP (carboxyfluorescein-DLVTSKLQVGGGC; also: C-terminal Cys coupled via maleimide-PEG2000-DSPE to rhodamine-labelled perfluorocarbon nanoemulsion)
- 19F signal of human neutrophils exposed to PFCs (1H/19F MRI) (human neutrophils): significantly stronger
- uptake by neutrophils, STEMI - hNPPFCs, raw data ([1]; STEMI patients, time 0, single samples #1-#5): 84.1 and 69.4 and 87.5 and 76.7 and 84.9
- cellular uptake by neutrophils from patients with STEMI versus healthy volunteers ([1]; blood obtained within the first 24 h after MI, flow cytometry and 19F MRI): substantially stronger cellular uptake

Substance: mNPPFCs: PEGylated rhodamine-labeled perfluoro-15-crown-5 ether nanoemulsion (maleimide PFCs) coupled with murine neutrophil-specific peptide mNP (carboxyfluorescein-DFYKPMPNLRITGGGC([maleimide‑PEG2000‑DSPE-rhodamine‑labelled PEGylated perfluoro‑15‑crown‑5 ether nanoemulsion]); reading uncertain; also: printed as DFYKPMPNLRIT-GGG-C)
- ex vivo uptake by murine neutrophils under LPS-stimulated versus unstimulated conditions (murine neutrophils; 24 h after Matrigel-LPS implantation): more rapid and potent uptake
- ex vivo uptake by murine neutrophils, Ctrl - mNPPFCs, raw data (murine neutrophils; time 0): 101 and 127 and 111 and 105
- ex vivo uptake by murine neutrophils, Ctrl - mNPPFCs, raw data (murine neutrophils; time 40): 4266 and 3190 and 3194 and 3820 and 4700
